Here are results for 20 compounds from US20220235049A1, “SUBSTITUTED PYRROLO [2, 3-b] PYRIDINE AND PYRAZOLO [3,4-b] PYRIDINE DERIVATIVES AS PROTEIN KINASE INHIBITORS” (Fochon Pharmaceuticals, Ltd., priority 2019, published 2022).

Broadly, the IC50 is the concentration that gives 50% inhibition. Low readings indicate inhibition by little substance, high ones a need for much substance.

In the assay the test system is DOHH2 cells. Description: Cell proliferation assay in DOHH2 cells (MTS). The format is cell-based. Conditions: Homo sapiens, DOHH-2, 120 h. In a few lines:
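DOHH2 cells at 5000/well were treated with compound at 1.5–10000 nM for 120 h at 37 °C, as a proxy for BTK inhibition. Proliferation was read by MTS for 2 h, stopped with SDS, and absorbance measured at 490 nm with 650 nm reference; IC50 was fitted from the curve.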
As to `COc1cnc2[nH]cc(C(=O)c3ccc(Oc4ccccc4F)cc3F)c2c1N[C@@H]1CC[C@@H](CNS(C)(=O)=O)OC1` [Example 161, N-(((2S,5R)-5-((3-(2-fluoro-4-(2-fluorophenoxy)benzoyl)-5-methoxy-1H-pyrrolo[2,3-b]pyridin-4-yl)amino)tetrahydro-2H-pyran-2-yl)methyl)methanesulfonamide], the IC50 worked out at 14 nM. `COC(=O)NC[C@@H]1CC[C@@H](Nc2c(OC)cnc3[nH]cc(C(=O)c4ccc(Oc5ccccc5F)cc4F)c23)CO1` [Example 163, methyl (((2S,5R)-5-((3-(2-fluoro-4-(2-fluorophenoxy)benzoyl)-5-methoxy-1H-pyrrolo[2,3-b]pyridin-4-yl)amino)tetrahydro-2H-pyran-2-yl)methyl)carbamate] registered an IC50 of 45 nM. For `COc1cnc2[nH]cc(C(=O)c3ccc(Oc4ccccc4F)cc3F)c2c1N[C@@H]1CCC(CO)(CO)OC1` [Example 164, (R)-(4-((6,6-bis(hydroxymethyl)tetrahydro-2H-pyran-3-yl)amino)-5-methoxy-1H-pyrrolo[2,3-b]pyridin-3-yl)(2-fluoro-4-(2-fluorophenoxy)phenyl)methanone] the value was 22 nM; for `COc1cnc2[nH]cc(C(=O)c3ccc(Oc4ccccc4)cc3)c2c1N[C@@H]1CC[C@@H](CO)OC1` [Example 177, (4-(((3R,6S)-6-(hydroxymethyl)tetrahydro-2H-pyran-3-yl)amino)-5-methoxy-1H-pyrrolo[2,3-b]pyridin-3-yl)(4-phenoxyphenyl)methanone], 9 nM.

`CCOc1cnc2[nH]cc(C(=O)c3ccc(Oc4ccccc4)cc3)c2c1N[C@@H]1CC[C@@H](CO)OC1` [Example 178, (5-ethoxy-4-(((3R,6S)-6-(hydroxymethyl)tetrahydro-2H-pyran-3-yl)amino)-1H-pyrrolo[2,3-b]pyridin-3-yl)(4-phenoxyphenyl)methanone] returned an IC50 of 15 nM. For the compound `O=C(c1ccc(Oc2c(F)cccc2F)cc1)c1c[nH]c2ncc(F)c(N[C@@H]3CC[C@@H](CO)OC3)c12` [Example 183, (4-(2,6-difluorophenoxy)phenyl)(5-fluoro-4-(((3R,6S)-6-(hydroxymethyl)tetrahydro-2H-pyran-3-yl)amino)-1H-pyrrolo[2,3-b]pyridin-3-yl)methanone], inhibition was half-maximal at 17 nM (IC50). `COc1cnc2[nH]cc(C(=O)c3ccc(Oc4c(F)cccc4F)cc3)c2c1N[C@@H]1CC[C@@H](CO)OC1` [Example 184, (4-(2,6-difluorophenoxy)phenyl)(4-(((3R,6S)-6-(hydroxymethyl)tetrahydro-2H-pyran-3-yl)amino)-5-methoxy-1H-pyrrolo[2,3-b]pyridin-3-yl)methanone] had an IC50 of 1 nM. The result for `Cc1cc(Oc2c(F)cccc2F)ccc1C(=O)c1c[nH]c2ncc(F)c(N[C@@H]3CC[C@@H](CO)OC3)c12` [Example 185, (4-(2,6-difluorophenoxy)-2-methylphenyl)(5-fluoro-4-(((3R,6S)-6-(hydroxymethyl)tetrahydro-2H-pyran-3-yl)amino)-1H-pyrrolo[2,3-b]pyridin-3-yl)methanone] reads 14 nM; that for `COc1cnc2[nH]cc(C(=O)c3ccc(Oc4c(F)cccc4F)cc3Cl)c2c1N[C@@H]1CC[C@@H](CO)OC1` [Example 186, (2-chloro-4-(2,6-difluorophenoxy)phenyl)(4-(((3R,6S)-6-(hydroxymethyl)tetrahydro-2H-pyran-3-yl)amino)-5-methoxy-1H-pyrrolo[2,3-b]pyridin-3-yl)methanone], 17 nM. The compound `O=C(c1ccc(Oc2c(F)cccc2F)cc1Cl)c1c[nH]c2ncc(F)c(N[C@@H]3CC[C@@H](CO)OC3)c12` [Example 187, (2-chloro-4-(2,6-difluorophenoxy)phenyl)(5-fluoro-4-(((3R,6S)-6-(hydroxymethyl)tetrahydro-2H-pyran-3-yl)amino)-1H-pyrrolo[2,3-b]pyridin-3-yl)methanone] yielded an IC50 of 52 nM. As to `COc1cnc2[nH]cc(C(=O)c3ccc(Oc4c(F)cccc4F)cc3C)c2c1N[C@@H]1CC[C@@H](CO)OC1` [Example 188, (4-(2,6-difluorophenoxy)-2-methylphenyl)(4-(((3R,6S)-6-(hydroxymethyl)tetrahydro-2H-pyran-3-yl)amino)-5-methoxy-1H-pyrrolo[2,3-b]pyridin-3-yl)methanone], the midpoint of inhibition, the IC50, lay at 4 nM. For `O=C(c1ccc(Oc2c(F)cccc2F)cc1Cl)c1c[nH]c2ncc(Cl)c(N[C@@H]3CC[C@@H](CO)OC3)c12` [Example 189, (5-chloro-4-(((3R,6S)-6-(hydroxymethyl)tetrahydro-2H-pyran-3-yl)amino)-1H-pyrrolo[2,3-b]pyridin-3-yl)(2-chloro-4-(2,6-difluorophenoxy)phenyl)methanone] the value was 32 nM; for `O=C(c1ccc(Oc2c(F)cccc2F)cc1)c1c[nH]c2ncc(Cl)c(N[C@@H]3CC[C@@H](CO)OC3)c12` [Example 190, (5-chloro-4-(((3R,6S)-6-(hydroxymethyl)tetrahydro-2H-pyran-3-yl)amino)-1H-pyrrolo[2,3-b]pyridin-3-yl)(4-(2,6-difluorophenoxy)phenyl)methanone], 11 nM; for `COc1cnc2[nH]cc(C(=O)c3ccc(Oc4ccccc4)cc3F)c2c1N[C@@H]1CC[C@@H](CO)OC1` [Example 191, (2-fluoro-4-phenoxyphenyl)(4-(((3R,6S)-6-(hydroxymethyl)tetrahydro-2H-pyran-3-yl)amino)-5-methoxy-1H-pyrrolo[2,3-b]pyridin-3-yl)methanone], 1 nM. With `COc1cnc2[nH]cc(C(=O)c3ccc(Oc4c(F)cccc4F)cc3F)c2c1N[C@@H]1CC[C@@H](CO)OC1` [Example 192, (4-(2,6-difluorophenoxy)-2-fluorophenyl)(4-(((3R,6S)-6-(hydroxymethyl)tetrahydro-2H-pyran-3-yl)amino)-5-methoxy-1H-pyrrolo[2,3-b]pyridin-3-yl)methanone], inhibition was half-maximal at 8 nM (IC50).

`COc1cnc2[nH]cc(C(=O)c3c(F)cc(Oc4c(F)cccc4F)cc3F)c2c1N[C@@H]1CC[C@@H](CO)OC1` [Example 193, (4-(2,6-difluorophenoxy)-2,6-difluorophenyl)(4-(((3R,6S)-6-(hydroxymethyl)tetrahydro-2H-pyran-3-yl)amino)-5-methoxy-1H-pyrrolo[2,3-b]pyridin-3-yl)methanone] registered an IC50 of 12 nM.

Compound `COc1cnc2[nH]cc(C(=O)c3c(F)cc(Oc4ccccc4F)cc3F)c2c1N[C@@H]1CC[C@@H](CO)OC1` [Example 194, (2,6-difluoro-4-(2-fluorophenoxy)phenyl)(4-(((3R,6S)-6-(hydroxymethyl)tetrahydro-2H-pyran-3-yl)amino)-5-methoxy-1H-pyrrolo[2,3-b]pyridin-3-yl)methanone] returned an IC50 of 26 nM.

In the case of `COc1cnc2[nH]cc(C(=O)c3ccc(Oc4ncccc4F)cc3F)c2c1N[C@@H]1CC[C@@H](CO)OC1` [Example 195], half-maximal inhibition (IC50) required 83 nM. In the case of `COc1cnc2[nH]cc(C(=O)c3ccc(Oc4ccccn4)cc3F)c2c1N[C@@H]1CC[C@@H](CO)OC1` [Example 196, (2-fluoro-4-(pyridin-2-yloxy)phenyl)(4-(((3R,6S)-6-(hydroxymethyl)tetrahydro-2H-pyran-3-yl)amino)-5-methoxy-1H-pyrrolo[2,3-b]pyridin-3-yl)methanone], the half-inhibitory concentration (IC50) was 44 nM.

The compound `COc1cnc2[nH]cc(C(=O)c3c(F)cc(Oc4ccccn4)cc3F)c2c1N[C@@H]1CC[C@@H](CO)OC1` [Example 198, (2,6-difluoro-4-(pyridin-2-yloxy)phenyl)(4-(((3R,6S)-6-(hydroxymethyl)tetrahydro-2H-pyran-3-yl)amino)-5-methoxy-1H-pyrrolo[2,3-b]pyridin-3-yl)methanone] came in with a concentration for half-maximal inhibition (IC50) of 52 nM.
